Source: patent publication US12295937B2, “Psychoactive medicines and their use for treating psychiatric and neurological conditions and disorders” (Transcend Therapeutics, Inc., priority 2021, dated 2025)
Where two headings read alike, the source gives them in different places.

How the values were obtained:
SERT [1] = biological target: T1, SERT (Rattus norvegicus, UniProt P31652); experiment: [3H]5-HT uptake inhibition in rat brain synaptosomes
SERT [2] = biological target: T1, SERT; experiment: [3H]5-HT release from rat brain synaptosomes; format: biochemical; set-up: from tissue; synaptosomes for uptake and release
Protocol: (§1) Test compounds and synaptosomes were prepared as described for uptake inhibition assays. Synaptosomes treated with [^3H]5-HT, [^3H]DA or [^3H]NE were loaded onto filter chambers containing GF/C filters and placed in a superfusion system. Oxygenated Krebs buffer was perfused through the chambers at a rate of 1.5 mL/minute at 35° C. using either an 8-channel or a 12-channel peristaltic pump. Trapped air bubbles were removed from the filters prior to collecting fractions to ensure an even flow over the synaptosomal bed. After a superfusion period of 45 minutes, 2 basal fractions were collected followed by 6 fractions following the addition of the test drug. […] Scintillation cocktail was added, and the filters counted to determine residual radioactivity. Drug-evoked release of neurotransmitter was calculated by subtracting the average of the two basal fractions (collected prior to the drug addition), from the four fractions collected in the presence of drug. The drug-evoked release was then expressed as a percentage of the basal release. Potassium-evoked release was calculated by subtracting the average of two fractions collected prior to the addition of high KCl buffer from that in the two fractions following addition of high KCl buffer. Potassium-stimulated release was calculated as a percentage of basal release. […]

NET [3] = biological target: T2, NET (Rattus norvegicus, UniProt Q63380); experiment: [3H]NE release from rat brain synaptosomes; format: biochemical; set-up: from tissue; synaptosomes for uptake and release
T2 sequence (Q63380 1-617): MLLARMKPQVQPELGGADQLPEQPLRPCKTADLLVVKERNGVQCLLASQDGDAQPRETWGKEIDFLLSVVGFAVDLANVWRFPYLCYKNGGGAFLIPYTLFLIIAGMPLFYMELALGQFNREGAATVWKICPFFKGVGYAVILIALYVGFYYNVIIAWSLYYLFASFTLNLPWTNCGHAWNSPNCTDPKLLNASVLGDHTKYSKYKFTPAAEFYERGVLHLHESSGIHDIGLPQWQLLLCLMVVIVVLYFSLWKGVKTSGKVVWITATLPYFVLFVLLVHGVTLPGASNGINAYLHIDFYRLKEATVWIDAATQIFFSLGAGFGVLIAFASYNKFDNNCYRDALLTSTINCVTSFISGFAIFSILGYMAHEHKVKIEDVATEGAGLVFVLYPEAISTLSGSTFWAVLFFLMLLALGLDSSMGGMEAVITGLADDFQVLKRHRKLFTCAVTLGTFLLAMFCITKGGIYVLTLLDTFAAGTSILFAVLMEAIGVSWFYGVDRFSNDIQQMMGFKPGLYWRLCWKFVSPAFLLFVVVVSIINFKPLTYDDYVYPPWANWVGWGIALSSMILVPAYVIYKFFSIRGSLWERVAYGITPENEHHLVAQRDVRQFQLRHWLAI
Protocol: as §1

[4] = tested on: myelin basic protein (MBP); experiment: Myelin basic protein immunohistochemistry in amygdala; format: in vivo, rat; conditions: 10 mg/kg IP, 24 h
Protocol: Immunohistochemistry: The in-life portion of the study was conducted at WuXi Apptec (Cranbury, NJ). Sectioning and staining of brains took place at Neuroscience Associates (NSA, Knoxville, TN). […] Brains were post-fixed in PFA before shipment to NSA for processing and staining. Hemisected brains were mounted, sectioned and stained using standard protocols with myelin-basic protein primary antibody (MBP SMI-99, 1:5000, Biolegend, San Diego, CA) and anti-mouse biotinylated secondary antibody (BA-2001, Vector Laboratories, Newark, CA). Slides were imaged using a Huron Digital Pathology TissueScope LE120 whole slide scanning system. 20× objective was used with a 0.4 μm/pixel resolution.

[5] = biological target: T3, Human serotonin 5HT2B receptor (Homo sapiens, UniProt P41595); experiment: Competitive radioligand binding to 5HT2B receptor membranes
T3 sequence (P41595 whole entry): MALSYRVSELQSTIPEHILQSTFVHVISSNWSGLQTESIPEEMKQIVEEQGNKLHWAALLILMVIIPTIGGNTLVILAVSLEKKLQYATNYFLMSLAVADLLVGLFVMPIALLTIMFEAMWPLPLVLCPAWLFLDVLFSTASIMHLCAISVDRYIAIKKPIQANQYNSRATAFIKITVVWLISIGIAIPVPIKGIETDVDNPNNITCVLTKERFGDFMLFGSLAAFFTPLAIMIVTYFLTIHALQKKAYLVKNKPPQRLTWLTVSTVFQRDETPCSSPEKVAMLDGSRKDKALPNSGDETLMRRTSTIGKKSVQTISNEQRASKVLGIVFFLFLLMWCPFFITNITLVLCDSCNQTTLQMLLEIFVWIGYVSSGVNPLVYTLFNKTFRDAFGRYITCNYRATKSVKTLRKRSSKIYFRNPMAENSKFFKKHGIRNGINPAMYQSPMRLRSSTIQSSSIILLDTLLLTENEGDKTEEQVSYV
Protocol: Human serotonin 5HT2B receptor membrane preparations were divided into aliquots. On the day of the assay, membranes were diluted at 1:200 in incubation buffer. […] To each well was added 150 μL membrane preparation, 50 μL test compound, non-specific compound, or buffer alone, as well as 50 μL radioligand. The plate was incubated at 35° C. for 90 minutes with gentle agitation. […] For each concentration of drug, non-specific binding was subtracted from total binding to give specific binding. […] Ki was subsequently calculated using the ChengPrusoff equation.

NET [6] = biological target: T2, NET; experiment: [3H]NE uptake inhibition in rat brain synaptosomes
[7] = biological target: T3, Human serotonin 5HT2B receptor; conditions: read-out: Ki (reported); reported values; cited from earlier work
DAT [8] = biological target: T4, DAT (Rattus norvegicus, UniProt P23977); experiment: [3H]DA uptake inhibition in rat brain synaptosomes
T4 sequence (P23977 whole entry): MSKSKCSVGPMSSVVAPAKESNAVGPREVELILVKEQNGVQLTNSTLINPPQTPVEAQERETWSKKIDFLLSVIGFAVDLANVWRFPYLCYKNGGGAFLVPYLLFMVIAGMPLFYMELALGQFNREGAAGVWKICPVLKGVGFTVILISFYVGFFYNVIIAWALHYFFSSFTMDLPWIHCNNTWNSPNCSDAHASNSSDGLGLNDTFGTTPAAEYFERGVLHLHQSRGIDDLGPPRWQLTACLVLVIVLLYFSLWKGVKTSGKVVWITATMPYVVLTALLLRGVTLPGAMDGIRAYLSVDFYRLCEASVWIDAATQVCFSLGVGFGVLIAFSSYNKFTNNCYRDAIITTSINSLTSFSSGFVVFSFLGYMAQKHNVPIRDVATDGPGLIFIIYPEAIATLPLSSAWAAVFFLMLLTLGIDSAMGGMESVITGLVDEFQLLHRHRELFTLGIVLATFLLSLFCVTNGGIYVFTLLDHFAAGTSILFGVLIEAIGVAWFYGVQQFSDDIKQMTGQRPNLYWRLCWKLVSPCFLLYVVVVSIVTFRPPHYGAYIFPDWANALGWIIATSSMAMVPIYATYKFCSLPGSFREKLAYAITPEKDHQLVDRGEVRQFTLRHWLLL

[9] = cited from earlier work
[10] = 13 of 77 deaths, meta-analysis; cited from earlier work
5HT2C receptor [11] = biological target: T5, 5HT2C receptor (Homo sapiens, UniProt P28335); experiment: GPCRmax screen, agonist mode, 5HT2C; format: cell-based; conditions: 1 or 10 mM
T5 construct: host or cells: PathHunter cell lines
T5 sequence (P28335 33-458): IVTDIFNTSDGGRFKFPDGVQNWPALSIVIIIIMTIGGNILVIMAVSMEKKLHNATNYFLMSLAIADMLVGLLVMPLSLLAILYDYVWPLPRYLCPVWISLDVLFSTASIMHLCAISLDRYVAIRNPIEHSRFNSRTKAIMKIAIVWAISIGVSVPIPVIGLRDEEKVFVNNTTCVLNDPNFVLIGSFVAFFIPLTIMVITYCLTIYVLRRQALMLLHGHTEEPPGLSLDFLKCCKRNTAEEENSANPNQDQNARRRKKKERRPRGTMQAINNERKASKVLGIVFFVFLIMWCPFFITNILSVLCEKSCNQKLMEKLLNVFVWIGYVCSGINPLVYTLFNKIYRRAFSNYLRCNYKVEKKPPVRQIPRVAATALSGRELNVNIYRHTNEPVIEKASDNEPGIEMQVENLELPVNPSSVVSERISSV

DAT [12] = biological target: T4, DAT; experiment: [3H]DA release from rat brain synaptosomes; format: biochemical; set-up: from tissue; synaptosomes for uptake and release
Protocol: as §1

5HT2C receptor [13] = biological target: T5, 5HT2C receptor; experiment: GPCRmax screen, antagonist mode, 5HT2C; format: cell-based; conditions: 1 or 10 mM
[14] = 7.5 mg/kg 30 minutes prior to extinction training (Young 2015); cited from earlier work
5HT2A receptor = biological target: T6, 5HT2A receptor (Homo sapiens, UniProt P28223); experiment: GPCRmax screen, agonist mode, 5HT2A; format: cell-based; conditions: 1 or 10 mM
T6 construct: host or cells: PathHunter cell lines
T6 sequence (P28223 whole entry): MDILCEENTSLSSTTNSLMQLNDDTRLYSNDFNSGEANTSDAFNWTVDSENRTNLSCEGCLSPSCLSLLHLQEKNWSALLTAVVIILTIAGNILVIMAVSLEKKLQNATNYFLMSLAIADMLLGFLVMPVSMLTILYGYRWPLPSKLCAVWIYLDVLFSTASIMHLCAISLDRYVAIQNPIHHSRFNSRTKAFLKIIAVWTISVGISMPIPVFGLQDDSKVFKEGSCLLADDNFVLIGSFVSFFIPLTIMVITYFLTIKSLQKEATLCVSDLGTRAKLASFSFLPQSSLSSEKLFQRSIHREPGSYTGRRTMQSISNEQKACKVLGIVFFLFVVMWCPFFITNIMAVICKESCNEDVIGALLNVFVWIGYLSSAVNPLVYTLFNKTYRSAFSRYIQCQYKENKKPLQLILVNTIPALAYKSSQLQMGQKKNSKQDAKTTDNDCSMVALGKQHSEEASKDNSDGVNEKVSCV

[15] = depending on the animal model and dosing conditions; cited from earlier work
[16] = tested on: gene expression in amygdala, frontal cortex, hippocampus; experiment: RNA-sequencing of rat brain areas after a single dose; format: in vivo

T1 sequence (P31652 whole entry): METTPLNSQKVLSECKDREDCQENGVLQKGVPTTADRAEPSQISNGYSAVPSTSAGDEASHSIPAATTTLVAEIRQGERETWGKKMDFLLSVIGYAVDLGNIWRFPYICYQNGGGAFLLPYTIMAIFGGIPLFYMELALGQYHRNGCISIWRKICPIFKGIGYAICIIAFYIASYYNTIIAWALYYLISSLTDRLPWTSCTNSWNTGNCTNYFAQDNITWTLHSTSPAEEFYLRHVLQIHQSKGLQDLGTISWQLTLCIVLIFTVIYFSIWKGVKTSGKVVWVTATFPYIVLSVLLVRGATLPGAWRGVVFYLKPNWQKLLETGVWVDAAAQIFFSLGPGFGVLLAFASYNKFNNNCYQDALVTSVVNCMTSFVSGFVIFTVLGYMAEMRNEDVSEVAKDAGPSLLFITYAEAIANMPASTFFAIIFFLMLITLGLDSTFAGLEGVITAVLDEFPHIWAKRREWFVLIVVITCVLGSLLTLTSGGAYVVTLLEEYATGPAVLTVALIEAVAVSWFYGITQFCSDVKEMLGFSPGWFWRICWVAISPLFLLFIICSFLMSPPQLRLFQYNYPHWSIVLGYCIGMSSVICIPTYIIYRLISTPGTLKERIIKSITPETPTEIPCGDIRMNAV

Structure (SMILES): CNC(C)Cc1ccc2c(c1)OCO2 (racemic) [MDMA, 3,4-Methylenedioxymethamphetamine]
- IC50 (SERT [1]): 1800 nM
- EC50 (SERT [2]): 160 nM
- EC50 (NET [3]): 490 nM
- MBP in basolateral and central nuclei of the amygdala vs. vehicle [4]: significant reduction in MBP
- Times greater affinity for the 5HT2B receptor compared with methylone [5]: 7.5 times
- IC50 (NET [6]): 120 nM
- Ki [7]: 500 nM
- IC50 (DAT [8]): 2500 nM
- Reduction in immobility in the FST ([9]; 5 mg/kg, Flinders Sensitive Line rats): 45%
- Reduction in immobility in the FST ([9]; 5 mg/kg, Sprague Dawley rats (Majumder 2011)): 45%
- Reduction in immobility in the FST ([9]; 10 mg/kg, Flinders Sensitive Line rats): 93%
- Reduction in immobility in the FST ([9]; 10 mg/kg, Sprague Dawley rats (Majumder 2011)): 78%
- Blood concentrations in deaths attributable to MDMA alone [10]: 478 to 53900 ng/mL
- Agonist % activity (5HT2C receptor [11]): 28.0%
- EC50 (DAT [12]): 1420 nM
- Antagonist % inhibition (5HT2C receptor [13]): 52.2%
- Reduced freezing vs. saline (extinction recall) [14]: 35%
- Agonist % activity (5HT2A receptor): 27.5%
- half-life [15]: 5 to 7 h
- Additional genes significantly regulated by MDMA only ([16]; amygdala): 1313 genes
- Genes downregulated by MDMA only ([16]; amygdala): 774 genes
- Genes regulated by MDMA that are also regulated by methylone ([16]; amygdala): 7%
- Genes upregulated by MDMA only ([16]; amygdala): 539 genes
- Genes regulated by both treatments ([16]; frontal cortex): 154 genes
- More genes regulated than methylone ([16]; frontal cortex): ~72%
- Genes significantly regulated ([16]; frontal cortex, 10 mg/kg IP (Example 27)): 825 genes
